The test system of test [1] is 557 cancer cell lines. Kind of test: PRISM pooled barcoded 5-day cell viability screen. It is filed as cell-based, human. How it is done: PRISM barcoded pooled screening was performed using JQAD1 in 578 barcoded cell lines as described in Corsello et al. Nat. Med. 23:405-8 (2017) and Corsello et al. Nat Cancer 1:235-48 (2020). Some cell lines included in the screen were genetically engineered to express exogenous genes, and these cell lines were removed to yield 557 cell lines. Briefly, cells in pools of 20-25 were thawed and plated into 384-well plates (1250 cells/well for adherent cell pools, 2000 cells/well for suspension or mixed suspension/adherent cell pools) containing compound (top concentration: 10 μM, 8-point, threefold dilution). All conditions were tested in triplicate. Cells were lysed after 5 days of treatment and mRNA-based Luminex® detection of barcode abundance from lysates was carried out as described in Corsello et al. Cancer 1:235-48 (2020). Luminex median fluorescence intensity (MFI) data was input to a standardized R pipeline to generate viability estimates relative to vehicle treatment for each cell line and treatment condition, and to fit dose-response curves from viability data.

The target in test [2] is T1, EP300 (Homo sapiens, UniProt Q09472).
T1 construct: Cells growing in culture were lysed for whole cell lysates; endogenous in cells; host or cells: Kelly, NGP, SIMA, BE2C neuroblastoma cells; Kelly xenografts in NSG mice
Put plainly: SILAC mass spectrometry of the nuclear proteome of Kelly cells (EP300). Type of test: cell-based. The settings on record: 500 nM, 24 h, nuclear extract, p=3.3×10^−5. As to the method: Because JQAD1 interacted preferentially with both EP300 and CRBN, whether JQAD1 preferentially induces degradation of EP300 compared to CBP in MYCN-amplified neuroblastoma cells was examined. […] To further examine the specificity of JQAD1 for EP300, an analysis of the effects of JQAD1 in stable isotope labeling by amino acids in cell culture (SILAC)-labelled Kelly cells was performed (FIG. 3F). Kelly cells were cultured with SILAC media containing heavy or light-labelled arginine and lysine. Heavy labelled cells were treated with 500 nM JQAD1, and light-labelled cells treated with dimethyl sulfoxide (DMSO) for 24 h, prior to nuclear extraction and protein lysis. […] Protein abundance was then analyzed by mass spectrometry, to determine global changes in the nuclear proteome. […] To expand upon these findings, three NB cell lines, Kelly, NGP and SIMA, which have high levels of CRBN (e.g., protein or mRNA) (FIG. 8C), were treated with JQAD, and the effects on specific proteins were measured by western blotting. […] Peptides were detected, isolated, and fragmented to produce a tandem mass spectrum of specific fragment ions for each peptide. Peptide sequences and protein identity were determined by matching protein databases with the acquired fragmentation pattern by Sequest® (Thermo Fisher Scientific) (Eng et al. J. Am. Soc. Mass Spectrom. 5:976-89 (1994)). […]

The structures appear in SMILES notation.

T1 sequence (Q09472 whole entry): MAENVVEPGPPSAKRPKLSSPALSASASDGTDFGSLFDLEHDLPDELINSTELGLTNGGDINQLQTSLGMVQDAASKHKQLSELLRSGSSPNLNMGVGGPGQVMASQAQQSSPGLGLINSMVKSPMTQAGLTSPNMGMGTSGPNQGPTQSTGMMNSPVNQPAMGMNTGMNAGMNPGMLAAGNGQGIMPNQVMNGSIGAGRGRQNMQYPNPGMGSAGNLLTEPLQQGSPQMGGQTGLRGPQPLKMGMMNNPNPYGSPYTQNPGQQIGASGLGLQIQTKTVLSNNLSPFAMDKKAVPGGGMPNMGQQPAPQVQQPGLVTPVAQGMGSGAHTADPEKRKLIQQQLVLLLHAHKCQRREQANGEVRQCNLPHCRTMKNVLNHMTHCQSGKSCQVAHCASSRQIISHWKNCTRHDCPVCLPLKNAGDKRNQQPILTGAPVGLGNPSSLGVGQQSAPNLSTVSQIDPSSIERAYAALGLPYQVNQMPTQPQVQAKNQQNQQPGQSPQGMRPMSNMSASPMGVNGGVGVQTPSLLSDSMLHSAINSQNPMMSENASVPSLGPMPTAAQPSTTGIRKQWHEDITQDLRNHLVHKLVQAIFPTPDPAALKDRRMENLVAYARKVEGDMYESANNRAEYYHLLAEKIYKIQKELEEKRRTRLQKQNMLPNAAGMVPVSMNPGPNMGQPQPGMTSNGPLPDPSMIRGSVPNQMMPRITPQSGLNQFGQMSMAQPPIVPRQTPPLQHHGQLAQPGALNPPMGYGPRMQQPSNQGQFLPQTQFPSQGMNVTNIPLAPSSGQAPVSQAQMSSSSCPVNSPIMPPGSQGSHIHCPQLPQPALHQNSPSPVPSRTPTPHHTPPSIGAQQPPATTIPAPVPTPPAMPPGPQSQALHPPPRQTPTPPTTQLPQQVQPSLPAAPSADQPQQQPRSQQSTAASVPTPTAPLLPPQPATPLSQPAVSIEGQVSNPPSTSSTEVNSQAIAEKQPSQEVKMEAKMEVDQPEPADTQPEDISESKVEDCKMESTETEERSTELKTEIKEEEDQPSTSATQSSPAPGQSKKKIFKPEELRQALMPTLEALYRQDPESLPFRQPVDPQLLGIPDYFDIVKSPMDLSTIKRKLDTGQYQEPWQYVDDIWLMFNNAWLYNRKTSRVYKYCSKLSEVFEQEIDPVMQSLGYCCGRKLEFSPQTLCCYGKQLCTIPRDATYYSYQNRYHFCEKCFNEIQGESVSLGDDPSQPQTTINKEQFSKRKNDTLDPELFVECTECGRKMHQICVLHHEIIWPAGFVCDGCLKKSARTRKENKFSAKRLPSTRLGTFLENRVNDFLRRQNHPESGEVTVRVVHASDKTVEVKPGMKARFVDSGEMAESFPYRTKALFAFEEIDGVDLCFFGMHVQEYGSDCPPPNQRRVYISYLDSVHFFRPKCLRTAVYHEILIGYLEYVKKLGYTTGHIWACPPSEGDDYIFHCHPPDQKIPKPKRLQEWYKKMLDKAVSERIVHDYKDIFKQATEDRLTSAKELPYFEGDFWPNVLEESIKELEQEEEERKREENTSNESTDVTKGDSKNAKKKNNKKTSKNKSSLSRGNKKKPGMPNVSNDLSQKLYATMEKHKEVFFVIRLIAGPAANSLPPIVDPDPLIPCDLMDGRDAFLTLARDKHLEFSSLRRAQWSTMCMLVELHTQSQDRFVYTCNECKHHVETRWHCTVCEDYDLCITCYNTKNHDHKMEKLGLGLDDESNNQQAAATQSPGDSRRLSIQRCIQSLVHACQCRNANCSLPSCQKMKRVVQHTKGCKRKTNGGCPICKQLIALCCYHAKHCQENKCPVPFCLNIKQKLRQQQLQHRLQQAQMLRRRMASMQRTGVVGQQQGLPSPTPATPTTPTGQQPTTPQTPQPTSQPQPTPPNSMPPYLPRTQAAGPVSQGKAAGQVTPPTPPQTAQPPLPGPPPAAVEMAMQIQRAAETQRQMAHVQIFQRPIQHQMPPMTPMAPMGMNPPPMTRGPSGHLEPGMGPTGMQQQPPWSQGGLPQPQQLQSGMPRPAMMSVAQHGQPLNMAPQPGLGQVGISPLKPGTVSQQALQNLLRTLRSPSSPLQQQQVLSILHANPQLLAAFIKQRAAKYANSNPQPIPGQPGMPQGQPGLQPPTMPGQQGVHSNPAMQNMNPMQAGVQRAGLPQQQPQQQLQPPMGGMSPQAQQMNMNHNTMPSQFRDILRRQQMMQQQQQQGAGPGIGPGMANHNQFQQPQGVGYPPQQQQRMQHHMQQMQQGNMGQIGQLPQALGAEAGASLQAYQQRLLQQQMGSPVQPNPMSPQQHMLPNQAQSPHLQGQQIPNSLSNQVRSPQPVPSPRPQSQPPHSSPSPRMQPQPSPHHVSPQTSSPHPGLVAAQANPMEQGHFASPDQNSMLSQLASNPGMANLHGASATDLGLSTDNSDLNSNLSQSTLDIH

In the case of `C[C@H](N(Cc1ccc(F)cc1)C(=O)CN1C(=O)O[C@@]2(CCc3cc(NC(=O)CCCCCCCCCCCNc4ccc5c(c4)C(=O)N(C4CCC(=O)NC4=O)C5=O)ccc32)C1=O)C(F)(F)F` (stereo partly drawn) [JQAD1, 12-((2-(2,6-dioxopiperidin-3-yl)-1,3-dioxoisoindolin-5-yl)amino)-N-((R)-3′-(2-((4-fluorobenzyl)((S)-1,1,1-trifluoropropan-2-yl)amino)-2-oxoethyl)-2′,4′-dioxo-2,3-dihydrospiro[indene-1,5′-oxazolidin]-5-yl)dodecanamide], the antineoplastic activity result in test [1] (5 days, 557 cancer cell lines) was “antineoplastic activity across multiple tumor lineages”. Also, the “area under the curve (AUC) of the dose-response in growth-inhibited cell lines” value in test [1] (5 days, top concentration 10 μM, some example cell lines within the majority of tumor lineages) was < 0.85. Further, in test [1] (CRBN expression from CCLE), the “relation of CRBN expression to AUC of the dose-response” value is recorded as “higher expression levels of CRBN were correlated with higher JQAD1-mediated antineoplastic activity”. Besides, the EP300 protein abundance result in test [2] is “significantly decreased”.
